Data published in patent EP4721758A1, “NOVEL MEDICINE FOR TREATING OSTEOSARCOMA” (Japanese Foundation For Cancer Research, priority 2023, dated 2024).

Columns and labels:
[1] = serum; read-out: maximum concentration of obatoclax in serum (Cmax); cited from earlier work
osteosarcoma cell lines = assay: IC50 of obatoclax, cell viability (CellTiter-Glo); assay type: cell-based; conditions: Homo sapiens; 11 osteosarcoma cell lines; 72 hours; compared with Cmax; Fig. 4-3
Procedure: In this example, G-292 cells, NY cells, NOS-1 cells, NOS-10 cells, HuO9 cells, SJSA-1 cells, MG-63 cells, HuO-3N1 cells, HOS cells, Sa-xeno-147 cells, and Sa-xeno-184 cells were used as osteosarcoma cell lines, and LC-2/ad cells, H2228 cells, H226 cells, H3122 cells, and A549 cells were used as lung adenocarcinoma cell lines.
After 72 hours from treatment with obatoclax, the cell viability of each cell was measured using the CellTiter-Glo Assay reagent. The IC50 value was calculated using Prism software.

NOS-10 cells [2] = assay: Mouse xenograft model, tumor volume; assay type: in vivo, SCID beige mice; conditions: obatoclax 5 mg/kg, OSI906 25 mg/kg, orally three times a week; MCL1-amplified xenograft; Fig. 6-2 (B)
Procedure: Using obatoclax or AZD5991 as an Mcl-1 inhibitor, the present inventors used mouse xenograft models of osteosarcoma with MCL1-amplified osteosarcoma (NOS-10 cells) and without MCL1-amplified osteosarcoma (Sa-xeno-147 cells) to determine the efficacy of the combination of obatoclax or AZD5991 with OSI906. To prevent side effects such as weight loss, the drugs were administered three times a week at relatively low concentrations (experimental schemes are shown in Figures 5A and 5D). The changes in tumor volume of NOS-10 cells and Sa-xeno-147 cells by treatment of drugs was examined as follows. NOS-10 cells or Sa-xeno-147 cells were subcutaneously inoculated into immunodeficient SCID beige mice (CB17.Cg-PrkdcscidLystbg-J/CrlCrlj, Charles River Laboratories, Inc.) (5-6×10^6 cells/mouse or 1×10^6 cells/mouse) and orally treated three times a week with vehicle (30% PEG400, 0.5% Tween80, 5% propylene glycol in water), with obatoclax (5 mg/kg), with OSI906 (25 mg/kg), or with obatoclax + OSI906 (5 mg/kg and 25 mg/kg, respectively). […] All data are shown as mean ± SD (n = 4, n = 5, or n = 6). *p < 0.05 and **p < 0.01 are determined using the Mann-Whitney U test.

NOS-10 cells [3] = assay: Cell viability (CellTiter-Glo); assay type: cell-based, human; conditions: for IC50 value / growth inhibitory effect: IGF-1R inhibitor in combination with Mcl-1 inhibitors such as obatoclax, AZD5991, and MIK665, Fig. 5-1; for IC50 values: in the presence of 40 nM obatoclax, Fig. 4-4
Procedure: In this example, the drug sensitivity of MIK665, an Mcl-1 inhibitor, was evaluated in NOS-10 cells. Various concentrations (i.e., 0, 1, 3, 10, 30, 100, 300, 1000, 3000, 10000, 30000 nM) of MIK665 (TargetMol) were administered, and cell viability was measured using CellTiter-Glo assay reagent 72 hours after drug treatment. As a control, osteosarcoma cells MG-63 cells, without amplification of the copy number of MCL1, were used. Data are shown as MG-63 mean ± SD (n = 3).
(§1) Specifically, four types of osteosarcoma cells (i.e., NOS-10 cells, Sa-xeno-147 cells, G-292 cells, and Sa-xeno-184 cells) were treated with six types of BH3 mimetics (i.e., obatoclax, navitoclax, venetoclax, A-1331852, AZD5991, and MIK665), and the cell viability of the osteosarcoma cells was measured.
Meanwhile, the combined effect of AZD5991 and 3 µ(micro)M Navitoclax on cell viability of NOS-10 cells was examined. Cell viability was measured using CellTiter-Glo assay reagent 72 hours after drug treatment. Data are shown as mean ± SD (n = 3).
(§2) Specifically, the present inventors investigated the combined effects of 40 nM obatoclax with DOX (Fig. 4-4(E), Fig. 4-5(A)), with CDDP (Fig. 4-4(F), Fig. 4-5(B)), and with MTX (Fig. 4-4(G), Fig. 4-5(C)) on cell viability in NOS-10 cells and Sa-xeno-147 cells. Cell viability was measured for each cell 72 hours after each drug treatment using CellTiter-Glo assay reagent. All data are shown as mean ± SD (n = 3). IC50 values were calculated and the data were graphed using GraphPad Prism.
To identify suitable combination partners of Mcl-1 inhibitors such as obatoclax for osteosarcoma treatment, further drug screening was performed using an in-house library of inhibitors in the presence of obatoclax in osteosarcoma cells. Specifically, the effect of combination of 35 nM obatoclax with an inhibitor out of 94 molecular targeted drugs in the library on cell viability of NOS-10 cells was examined. Cell viability was measured using CellTiter-Glo assay reagent 72 hours after the cells were treated with each combination of drugs. All data are shown as mean ± SD (n = 3). GraphPad Prism was used to calculate IC50 values and graph the data.

Sa-xeno-147 cells = assay: Cell viability (CellTiter-Glo); assay type: cell-based, human; conditions: for IC50 values: in the presence of 40 nM obatoclax, 72 hours, Fig. 4-5; for cell viability: BH3 mimetic drug sensitivity, Fig. 4-1
Procedure: as §1, §2

BCL-xL = BCL-xL (Homo sapiens, UniProt Q07817); conditions: cited from earlier work
Sequence of BCL-xL (Q07817 whole entry): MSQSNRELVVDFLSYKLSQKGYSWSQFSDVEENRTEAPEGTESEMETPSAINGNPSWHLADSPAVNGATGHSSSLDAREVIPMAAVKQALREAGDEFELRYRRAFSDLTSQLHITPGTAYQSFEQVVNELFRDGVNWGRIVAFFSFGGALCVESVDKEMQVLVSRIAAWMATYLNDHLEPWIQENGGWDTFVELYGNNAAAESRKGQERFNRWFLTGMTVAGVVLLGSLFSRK

BCL-2 = BCL-2 (Homo sapiens, UniProt P10415); conditions: cited from earlier work
Sequence of BCL-2 (P10415 whole entry): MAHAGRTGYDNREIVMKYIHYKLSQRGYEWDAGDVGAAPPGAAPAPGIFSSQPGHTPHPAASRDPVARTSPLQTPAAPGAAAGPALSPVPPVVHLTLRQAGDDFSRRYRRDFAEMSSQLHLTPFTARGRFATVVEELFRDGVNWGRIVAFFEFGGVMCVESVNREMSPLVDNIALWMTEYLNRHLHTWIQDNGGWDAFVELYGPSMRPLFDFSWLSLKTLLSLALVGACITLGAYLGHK

osteosarcoma cells [4] = assay: Inhibitor library drug screening, cell viability (CellTiter-Glo); assay type: cell-based, human; conditions: nine osteosarcoma cell lines and two PDC, 72 hours, heatmap Fig. 1A
Procedure: The nine human osteosarcoma cell lines (MG-63 cells, NY cells, HOS cells, HuO9 cells, HuO-3N1 cells, SJSA-1 cells, NOS-1 cells, NOS-10 cells, and G-292 clone A141B1 (G-292) cells) were purchased from the American Type Culture Collection, the RIKEN BioResource Research Center, or the Japanese Collection of Research Bioresources Cell Bank (JCRC) and used at lower passage numbers.
Specifically, • MG-63 cells, NY cells, and HOS cells were cultured in 96-well plates using MEM (Wako) comprising 10% FBS (CORNING), 1% non-essential amino acid solution (Wako), and 100 µ(micro)g/mL kanamycin (MEIJI), • HuO9 cells, HuO-3N1 cells, SJSA-1 cells, NOS-1 cells, and NOS-10 cells were cultured in 96-well plates using RPMI-1640 medium (Wako) comprising 10% FBS and 100 µ(micro)g/mL kanamycin. • G-292 clone A141B1 (G-292) cells were cultured in 96-well plate using McCoy's 5a medium comprising 10% FBS, • Sa-xeno-147 and Sa-xeno-184 cell lines were developed from patient-derived xenograft tumors and were cultured in collagen-coated dishes with RPMI 1640/Ham's F12 (1:1) medium comprising 15% FBS, 20 mM HEPES, and antibiotic-antimycotic solution (Sigma-Aldrich). Cells were cultured at 37°C and 5% CO2.
Cells were seeded in triplicate in 96-well plates (Greiner) or type I collagen-coated plates (IWAKI) at a density of 2000 cells/well and cultured for at least 24 h. After 72 hours of incubation with any of the 96 compounds of the library of the inhibitors, cells were incubated with CellTiter-Glo reagent (Promega) for 2 minutes on a Titramax 100 plate shaker (Heidolph), and after 10 minutes of equilibration, cell viability assays of each osteosarcoma cell were performed by measuring luminescence using a Tristar LB941 multimode microplate reader (Berthold Technologies). The cell viability was calculated as a ratio of the DMSO control to evaluate their effects on osteosarcoma cell proliferation (n=2).

Sa-xeno-184 cells = assay: Cell viability, BH3 mimetic drug sensitivity; assay type: cell-based, human; conditions: cells with MCL1 amplification, Fig. 4-1
Procedure: as §1

Mcl-1 [5] = target: T1, Mcl-1 (Homo sapiens, UniProt Q07820); conditions: cited from earlier work
T1 sequence (Q07820 whole entry): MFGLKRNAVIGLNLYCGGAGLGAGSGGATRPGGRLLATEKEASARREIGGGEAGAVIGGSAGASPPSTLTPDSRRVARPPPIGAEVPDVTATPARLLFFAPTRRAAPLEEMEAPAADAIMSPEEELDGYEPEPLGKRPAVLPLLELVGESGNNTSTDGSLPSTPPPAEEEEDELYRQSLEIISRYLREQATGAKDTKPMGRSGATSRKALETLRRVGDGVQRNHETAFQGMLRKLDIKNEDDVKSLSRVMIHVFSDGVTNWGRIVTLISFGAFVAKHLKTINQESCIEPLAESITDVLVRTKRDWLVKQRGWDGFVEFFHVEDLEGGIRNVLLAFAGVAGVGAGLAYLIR

Mcl-1 [6] = target: T1, Mcl-1; conditions: cited from earlier work; remark: listed apart in the source
G-292 cells = assay: Cell viability, BH3 mimetic drug sensitivity; assay type: cell-based, human; conditions: cells with BCL2L1 amplification, Fig. 4-1
Procedure: as §1

osteosarcoma cells [7] = assay: Cell viability, combined use of Mcl-1 inhibitor and Bcl-xL inhibitor; assay type: cell-based
From the text: In this example, AZD5991 or MIK665 was used as an Mcl-1 inhibitor, and A-1331852 was used as a Bcl-xL inhibitor.

topoisomerase = conditions: cited from earlier work
[8] = BH3 mimetic drug sensitivity, cells with MCL1 amplification, Fig. 4-1

For COC1=CC(c2cc3ccccc3[nH]2)=N/C1=C\c1[nH]c(C)cc1C [obatoclax], the Cmax [1] is listed as 176 nM and the IC50 (osteosarcoma cell lines) is listed as less than 176 nM.
In the case of C[C@]1(O)C[C@@H](c2nc(-c3ccc4ccc(-c5ccccc5)nc4c3)c3c(N)nccn32)C1 [OSI906], the tumor growth (NOS-10 cells [2]) is reported as “little effect on tumor growth”, the IC50 value (NOS-10 cells [3]; 72 hours) is reported as “significantly reduced” and the growth inhibitory effect (NOS-10 cells [3]; 72 hours) is reported as “enhanced”.
For COc1cccc2c1C(=O)c1c(O)c3c(c(O)c1C2=O)C[C@@](O)(C(=O)CO)C[C@@H]3O[C@H]1C[C@H](N)[C@H](O)[C@H](C)O1 [DOX, Doxorubicin], the IC50 values (NOS-10 cells [3]; 72 hours) was “not decreased” and the IC50 values (Sa-xeno-147 cells) was “not decreased”.
For Cc1cc(OCCCc2c3n(c4c(-c5c(C)nn(C)c5C)c(Cl)ccc24)[C@H](C)CN(c2cn(C)c4ccc(C(=O)O)cc24)C3=O)cc(C)c1Cl [VU661013], the “inhibition of BCL-xL” value (BCL-xL) is given as “does not significantly inhibit” and the “inhibition of BCL-2” value (BCL-2) is given as “does not significantly inhibit”.
In the case of CC(C)C[C@H](NC(=O)[C@H](Cc1ccccc1)NC(=O)c1cnccn1)B(O)O [bortezomib], the “osteosarcoma cell proliferation (cell viability)” value (“osteosarcoma cell proliferation” for short) (osteosarcoma cells [4]) is reported as “extensive inhibition of osteosarcoma cell proliferation”.
In the case of Cc1c2c(nn1C)CSCc1cc(n(C)n1)CSc1cc(c3ccccc3c1)OCCCc1c(C(=O)O)n(C)c3c-2c(Cl)ccc13 [AZD5991], the cell viability (Sa-xeno-184 cells) is reported as “reduce cell viability at relatively low concentrations”, the cell viability (NOS-10 cells [3]; AZD5991 combined with 3 µM Navitoclax, 72 hours, Fig. 4-2) is reported as “increased the inhibitory effect on cell viability” and the cell viability (NOS-10 cells [3]; [8]) is reported as “reduce cell viability at relatively low concentrations”. The cell viability (Sa-xeno-147 cells) was “moderate inhibitory effects”.
In the case of Cc1nn(C)c(COc2ccc(N3CCN(S(=O)(=O)N(C)C)CC3)cc2)c1-c1cccc2c(CCCOc3cccc4ccccc34)c(C(=O)O)n(CCN3CCOCC3)c12 [A-1210477], the “selectivity than other Bcl-2 family members” value (Mcl-1 [5]) is listed as no less than 100 fold.
For O=C(c1ccccc1O)c1[nH]c(Cl)c(Cl)c1-n1c(C(=O)c2ccccc2O)cc(Cl)c1Cl [Marinopyrrole A], the “binding to Mcl-1” value (Mcl-1 [6]) is given as “bind to Mcl-1” and the “binding to BCL-XL” value (BCL-xL) is given as “not to Bcl-XL”.
With COc1cc(N2CCC(N)CC2)ccc1Nc1ncc(Cl)c(-c2c[nH]c3ccccc23)n1 [AZD3463] the IC50 value (NOS-10 cells [3]; 72 hours) was “significantly reduced” and the growth inhibitory effect (NOS-10 cells [3]; 72 hours) was “enhanced”.
In the case of [NH2][Pt]([NH2])([Cl])[Cl] [CDDP, cisplatin], the IC50 values (NOS-10 cells [3]; 72 hours) is reported as “not decreased” and the IC50 values (Sa-xeno-147 cells) is reported as “not decreased”.
For MIK665, the cell viability (Sa-xeno-184 cells) was “reduce cell viability at relatively low concentrations”, the cell viability (NOS-10 cells [3]; [8]) was “reduce cell viability at relatively low concentrations” and the cell viability (NOS-10 cells [3]; low concentrations of MIK665 (range 0-30000 nM), 72 hours, compared to MG-63 cells without MCL1 amplification, Fig. 2) was “reduced cell viability”. The cell viability (Sa-xeno-147 cells) was “moderate inhibitory effects”.
In the case of Cc1c(-c2c(-c3ccc(F)o3)sc3ncnc(O[C@H](Cc4ccccc4OCc4ccnn4CC(F)(F)F)C(=O)O)c23)ccc(OCCN2CCN(C)CC2)c1Cl [S63845], the “binding to BCL-XL” value (BCL-xL) is listed as “not to bind” and the “binding to BCL-2” value (BCL-2) is listed as “not to bind”.
With Cc1c(-c2ccc(N3CCc4cccc(C(=O)Nc5nc6ccccc6s5)c4C3)nc2C(=O)O)cnn1CC12CC3CC(CC(C3)C1)C2 [A-1331852] the cell viability (G-292 cells) was “most effective in reducing cell viability”, the cell viability (osteosarcoma cells [7]; A-1331852 alone, Fig. 3-5, Fig. 3-6) was “almost no effect on reduction of cell viability” and the cell viability (osteosarcoma cells [7]; A-1331852 in combination with AZD5991, Fig. 3-5) was “strong effect on reduction of cell viability”. For the same compound, the cell viability (osteosarcoma cells [7]; A-1331852 in combination with MIK665, Fig. 3-6) was “strong effect on reduction of cell viability”.
In the case of CC(C)C[C@H](NC(=O)[C@H](CCc1ccccc1)NC(=O)CN1CCOCC1)C(=O)N[C@@H](Cc1ccccc1)C(=O)N[C@@H](CC(C)C)C(=O)[C@@]1(C)CO1 [carfilzomib], the “osteosarcoma cell proliferation” value (osteosarcoma cells [4]) is reported as “extensive inhibition of osteosarcoma cell proliferation”.
With CN(Cc1cnc2nc(N)nc(N)c2n1)c1ccc(C(=O)N[C@@H](CCC(=O)O)C(=O)O)cc1 [MTX, methotrexate] the IC50 values (NOS-10 cells [3]; 72 hours) was “not decreased” and the IC50 values (Sa-xeno-147 cells) was “not decreased”.
For CCc1c2c(nc3ccc(O)cc13)-c1cc3c(c(=O)n1C2)COC(=O)[C@]3(O)CC [SN-38], the “osteosarcoma cell proliferation” value (osteosarcoma cells [4]) is given as “extensive inhibition of osteosarcoma cell proliferation” and the “activity relative to irinotecan” value (topoisomerase) is given as 1000 times.
